# Data reported in patent US11273217B2, “Cancer treatment composition combining anti-CD26 antibody and other anticancer agent” (Y's AC Co., Ltd., priority 2015, dated 2022).
# Assays:
# H226 cells = assay: MTT cell growth assay, H226; format: cell-based
# Experimental: (§1) Gemcitabine was studied for its effect on the growth of a mesothelioma cell line. A mesothelioma cell line MESO1, JMN, H2452, or H226 (2×10^3 cells/well) was inoculated to a 96-well plate. One hour later, gemcitabine (10^−9, 10^−8, 10^−7, 10^−6, 10^−5, or 10^−4 M) was added thereto (N=6). 2 days later, MTT assay was conducted. Significant difference was tested by two-tailed t-test (vs Cont).
# (§2) H226 cells (2×10^3 cells/well) were inoculated to a 96-well plate. One hour later, gemcitabine (0, 10^−8, 3×10^−8, or 10^−7 M) and YS110 (0, 1, 3, or 10 μg/ml) were added thereto in combination. At day 2, MTT assay was conducted. Significant difference was tested by two-tailed t-test (vs Cont). Next, interaction in concomitant use of medications was studied (n=6). The interaction between YS110 and gemcitabine used concomitantly was analyzed by two-way ANOVA.
# (§3) MESO1, JMN, H2452 or H226 cells (2×10^3 cells/well were inoculated to a 96-well plate. One hour later, 3×10^−8 M or 10^−7 M gemcitabine was added thereto by concomitant use with the combination of cisplatin (0, 0.1, 0.3, or 1 μM) and pemetrexed (0, 0.03, 0.1, or 0.3 μM) (n=6). At day 2, MTT assay was conducted.
# (§4) The growth inhibitory effect of gemcitabine (10^−9 to 10^−4 M) was compared using MESO1, H2452, JMN, and H226 cell lines.
# H226 = assay: In vivo growth of epithelioid mesothelioma cell H226 in SCID mice (tumor weight); conditions: YS110 10 mg/kg, gemcitabine 20 mg/kg, intraperitoneal, days 2 and 4; day 7
# Experimental: H226 (3.8×10^5 cells/animal) was subcutaneously transplanted to the backs of female SCID mice. The day of transplantation was defined as day 0. YS110 (10 mg/kg), gemcitabine (20 mg/kg), or YS110 (10 mg/kg)+gemcitabine (20 mg/kg) was intraperitoneally administered to the mice twice (days 2 and 4) (n=6). At day 7, their tumors were excised, and the tumor weights were measured. Significant difference was tested by two-tailed t-test (vs Cont). The interaction between YS110 and gemcitabine used concomitantly was analyzed by two-way ANOVA.
# H2452 cells = assay: MTT cell growth assay, H2452; format: cell-based; conditions: 3×10^−8 M or 10^−7 M gemcitabine with cisplatin 0-1 μM and pemetrexed 0-0.3 μM; day 2
# Experimental: (§5) MESO1 or H2452 cells (2×10^3 cells/well) were inoculated to a 96-well plate. One hour later, cisplatin or pemetrexed was added thereto at 10^−9, 10^−8, 10^−7, 10^−6, 10^−5, or 10^−4 M (n=6). At day 2, MTT assay was conducted.
# H2452 cells (2×10^3 cells/well) were inoculated to a 96-well plate. One hour later, the combination of 0.03, 0.3, or 1 μM cisplatin and 0.1, 3, or 10 μg/ml YS110, or the combination of 0.01, 0.1, or 0.3 μM pemetrexed and 0.1, 3, or 10 μg/ml YS110 was added thereto (n=6). At day 2, MTT assay was conducted. Significant difference was tested by two-tailed t-test (vs Cont).
# (§6) MESO1 cells (2×10^3 cells/well) or H2452 cells (2×10^3 cells/well) were inoculated to a 96-well plate. One hour later, 0.3 μM cisplatin-0.1 μM pemetrexed combination, or YS110 (10 μg/ml) plus the 0.3 μM cisplatin-0.1 μM pemetrexed combination was added thereto (n=6). At day 2, MTT assay was conducted. Significant difference was tested by two-tailed t-test (vs Cont).
# as §1
# as §2, with “H2452” for “H226”
# as §3, §4
# JMN cells [1] = assay: In vivo JMN cell growth in SCID mice (tumor weight); conditions: YS110 10 mg/kg, gemcitabine 10 mg/kg, intraperitoneal, days 2 and 4; day 7
# MESO1 cells = assay: MTT cell growth assay, MESO1; format: cell-based; conditions: 3×10^−8 M or 10^−7 M gemcitabine with cisplatin 0-1 μM and pemetrexed 0-0.3 μM; day 2
# Experimental: as §5
# MESO1 cells (2×10^3 cells/well) were inoculated to a 96-well plate. One hour later, the combination of 0.3, 3, or 10 μM cisplatin and 0.1, 3, or 10 μg/ml YS110, or the combination of 0.03, 0.3, or 1 μM pemetrexed and 0.1, 3, or 10 μg/ml YS110 was added thereto. At day 2, MTT assay was conducted. Significant difference was tested by two-tailed t-test (vs Cont).
# as §6, §1
# as §2, with “MESO1” for “H226”
# as §3
# (§7) The growth inhibitory effects of cisplatin (10^−9 to 10^−4 M) and pemetrexed (10^−9 to 10^−4 M) were compared using the MESO1 and JMN cell lines.
# as §4
# JMN cells [2] = assay: MTT cell growth assay, JMN; format: cell-based
# Experimental: as §1
# as §2, with “JMN” for “H226”, “3×10^−10, 10^−9,” for “10^−8, 3×10^−8,”, “3×10^−8” for “10^−7”
# as §3, §7, §4
# [3] = 3×10^−8 M or 10^−7 M gemcitabine with cisplatin 0-1 μM and pemetrexed 0-0.3 μM, day 2
smiles,measurement,setting,value
Nc1ccn([C@@H]2O[C@H](CO)[C@@H](O)C2(F)F)c(=O)n1 [gemcitabine],effect of gemcitabine on the growth inhibitory action of cisplatin-pemetrexed,H226 cells; [3],did not potentiate
same,"cell growth, gemcitabine dose-response compared among mesothelioma cell lines (in words)","H226 cells; 10^−9 to 10^−4 M, 2 days",more strongly suppressed the growth
same,growth inhibitory effect compared between H2452 and H226,"H226 cells; H2452 (CD9+) vs H226 (CD9−), 10^−9 to 10^−4 M",significantly stronger growth inhibitory effect on H226 than on H2452
same,inhibitory effect (tumor weight),H226,29%
same,effect of gemcitabine on the growth inhibitory action of cisplatin-pemetrexed,H2452 cells,did not potentiate
same,inhibitory effect (tumor weight),JMN cells [1],29%
same,effect of gemcitabine on the growth inhibitory action of cisplatin-pemetrexed,MESO1 cells,did not potentiate
same,effect of gemcitabine on the growth inhibitory action of cisplatin-pemetrexed,JMN cells [2]; [3],did not potentiate
same,"cell growth, gemcitabine dose-response compared among mesothelioma cell lines (in words)","JMN cells [2]; 10^−9 to 10^−4 M, 2 days",more strongly suppressed the growth
same,growth inhibitory effect compared between MESO1 and JMN,"JMN cells [2]; MESO1 (CD9+) vs JMN (CD9−), 10^−9 to 10^−4 M",significantly stronger growth inhibitory effect on JMN than on MESO1
